Data set [1] has as its system Phytophthora infestans. The format is in vivo. Particulars: tomato, preventive spray, 100 ppm of active ingredient, evaluated 7 days after inoculation.
A further data set deals with Plasmopara viticola. The data set is described as follows: Plasmopara test (grapevines)/preventive. The format is in vivo. The note with it: preventive spray, 10 ppm of active ingredient, evaluated 6 days after inoculation. Summed up:
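Young grapevines sprayed preventively with compound formulated in acetone/dimethylacetamide with emulsifier, diluted in water, then inoculated with P. viticola spores after drying. Held 1 day at ~20 °C/100% RH, 4 days in greenhouse at ~21 °C/~90% RH, then misted for 1 day. Efficacy scored 6 days post-inoculation (0% = untreated control, 100% = no disease).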

In a further data set the test system is Pythium aphanidermatum. The data set is described as follows: Pythium test (cucumber)/seed treatment. The format is in vivo. Particulars: 10 g/dt seed of active ingredient, emerged seedlings after 7 days. How it is done:
(§1) The test is performed under greenhouse conditions.
Cucumber seeds, treated with the active compound or compound combinations, solved in N-methyl-2-pyrrolidon and diluted with water to the desired dosages, were sown in 6*6 cm pots containing 4 cm of a 1:1 mix of steamed field soil and sand.
Perlite was incubated with mycelium fragments of Pythium aphanidermatum. 5 ml of infected perlite was scattered between the treated […] seeds. Seeds were then covered by the 1:1 mix of steamed field soil and sand. Pots were incubated in the greenhouse 7 days at 24° C. and 80% relative humidity. Assessment consisted of counting of emerged seedlings. 0% means an efficacy which corresponds to that of the control, while an efficacy of 100% means that all seedlings have emerged.

For a further data set, the system named is Pythium ultimum. Put plainly: Pythium test (cotton)/seed treatment. The format is in vivo. Particulars: 10 g/dt seed of active ingredient, emerged seedlings after 7 days. The method, then:
as §1
Cotton seeds, treated with the active compound or compound combinations, solved in N-methyl-2-pyrrolidon and diluted with water to the desired dosages, were sown in 6*6 cm pots containing 4 cm of a 1:1 mix of steamed field soil and sand.
Perlite was incubated with mycelium fragments of Pythium ultimum. 1 ml of infected perlite was scattered between the treated cotton seeds. Seeds were then covered by light expanded clay aggregate. Pots were incubated in the greenhouse 7 days at 20° C. and 80% relative humidity.
(§2) Assessment consisted of counting of emerged seedlings. 0% means an efficacy which corresponds to that of the control, while an efficacy of 100% means that all seedlings have emerged.

For the next data set, the system named is Pythium irregulare. The data set is described as follows: Pythium test (corn)/seed treatment. The format is in vivo. The note with it: 10 g/dt seed of active ingredient, emerged seedlings after 7 days at 10° C. then 14 days at 20° C. How it is done:
as §1
Corn seeds, treated with the active compound or compound combinations, solved in N-methyl-2-pyrrolidon and diluted with water to the desired dosages, were sown in 6*6 cm pots containing 4 cm of a 1:1 mix of steamed field soil and sand.
Perlite was incubated with mycelium fragments of Pythium irregulare. 5 ml of infected perlite was scattered between the treated cotton seeds. Seeds were than covered by the 1:1 mix of steamed field soil and sand. Pots were incubated in the greenhouse 7 days at 10° C. and 80% relative humidity and then 14 days at 20° C. and 80% relative humidity.
as §2

The conditions of data set [2]: pH 2.7.
Data set [3] concerns Phytophthora infestans. The format is in vivo. Particulars: tomato plants, spray, 500 ppm, grading 5 days after contamination.
The test system of the next data set is Pyricularia grisea. The format is in vivo. Particulars: rice plants, spray, 500 ppm, grading 6 days after contamination.
A further data set relates to Sphaerotheca fuliginea. The data set is described as follows: In vivo test on Sphaerotheca fuliginea (cucurbits powdery mildew). The note with it: gherkin plants, spray, 500 ppm, grading 12 days after contamination. The method, then: The active ingredients tested are prepared by homogenization in a mixture of acetone/tween/DMSO, then diluted with water to obtain the desired active material.
Gherkin plants (Vert petit de Paris variety) in starter cups, sown on a 50/50 peat soil-pozzolana substrate and grown at 20° C./23° C., are treated at the cotyledon Z10 stage by spraying with the aqueous suspension described above. Plants, used as controls, are treated with an aqueous solution not containing the active material.
After 24 hours, the plants are contaminated by spraying them with an aqueous suspension of Sphaerotheca fuliginea spores (100.000 spores per ml). The spores are collected from a contaminated plants. The contaminated gherkin plants are incubated at about 20° C./25° C. and at 60/70% relative humidity.
Grading (% of efficacy) is carried out 12 days after the contamination, in comparison with the control plants.
(§3) Under these conditions, good (at least 70%) or total protection is observed at a dose of 500 ppm with the following compounds: […]

Another data set has as its system Uromyces appendiculatus. The data set is described as follows: In vivo test on Uromyces appendiculatus (brown rust of bean). The note with it: Saxa variety plants, spray, 500 ppm, grading 10 days after contamination.
Data set [4] deals with Mycosphaerella graminicola. The data set is described as follows: In vivo test on Mycosphaerella graminicola (wheat leaf spot). Particulars: wheat plants, spray, 500 ppm, grading 21 to 28 days after contamination. Summed up: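 Scipion wheat at 1-leaf stage was sprayed with compound suspension (acetone/tween/DMSO diluted in water), then inoculated 24 h later with spores (500.000/ml). Plants were held 72 h at 18° C and 100% RH, then 21 to 28 days at 90% RH. Efficacy was graded as % versus untreated controls.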

Another data set has as its system Puccinia recondita. The data set is described as follows: In vivo test on Puccinia recondita (brown rust). The note with it: wheat plants, spray, 500 ppm, grading 10 days after contamination. Summed up:
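Wheat (Scipion) at the 1-leaf stage sprayed with compound suspension (acetone/tween/DMSO diluted in water), then inoculated 24 h later with Puccinia recondita spores at 100.000 spores per ml. Plants were held 24 h at 20 °C/100% RH, then 10 days at 20 °C/70% RH; protection graded 10 days post-inoculation versus untreated controls.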

The nature of data set [5]: Measurement of log P values by HPLC on reversed phase columns (EEC directive 79/831 Annex V.A8). The note with it: pH 2.7.
A further data set relates to Botrytis cinerea. Put plainly: In vivo test on Botrytis cinerea (grey mould). Particulars: gherkin plants, spray, 500 ppm, grading 4/5 days after contamination. How it is done:
The active ingredients tested are prepared by homogenization in a mixture of acetone/Tween/DMSO, then diluted with water to obtain the desired active material
Gherkin plants (Vert petit de Paris variety), sown on a 50/50 peat soil-pozzolana substrate in starter cups and grown at 18-20° C., are treated at the cotyledon Z11 stage by spraying with the active ingredient prepared as described above.
Plants, used as controls, are treated with an aqueous solution not containing the active material. After 24 hours, the plants are contaminated by spraying them with an aqueous suspension of cryopreserved Botrytis cinerea spores (50.000 spores per ml) on upper surface of the leaves. The spores are suspended in a nutrient solution composed of: • 10 g/L of PDB; • 50 g/L of D-fructose; • 2 g/L of NH4NO3; • 1 g/L of KH2PO4.
The contaminated cucumber plants are settled for 4/5 days in a climatic room at 17° C. (day/night) and at 80% relative humidity.
Grading is carried out 4/5 days after the contamination, in comparison with the control plants.
as §3

SMILES strings stand for the structures. Like-named read-outs stand apart in the source and are kept apart here. Marks after values point to notes of the source that are not given here.

The term LogP denotes a log measure of how a compound divides between an organic and an aqueous phase. Higher therefore signals higher lipophilicity. Consider `CCCCCOC(=O)Nc1cccc(CO/N=C(/c2ccccc2)c2noc(=O)n2C)n1` [Example 2], for which the Eff. % with Phytophthora infestans [1] was found to be 100%; with Plasmopara viticola, 97%; in the data set with Pythium aphanidermatum, 98%; in the data set on Pythium ultimum, 89%; in the data set with Pythium irregulare, 100%. Besides, the lipophilicity (LogP) in data set [2] is 4.44 [a].
Take `C#CCCOC(=O)Nc1cccc(CO/N=C(/c2ccccc2)c2noc(=O)n2C)n1` [Example 3]: the Eff. % was 98% with Phytophthora infestans [1]; 100% in the data set on Plasmopara viticola; 95% in the data set with Pythium aphanidermatum; 93% in the data set on Pythium ultimum; 100% in the data set on Pythium irregulare. Moreover, the LogP in [2] was 3.27 [a].
Consider `CCCCC(=O)Nc1cccc(CO/N=C(/c2ccccc2)c2noc(=O)n2C)n1` [Example 15], for which the Eff. % is 98% with Phytophthora infestans [1]; 97% in the data set with Plasmopara viticola; 98% in the data set with Pythium aphanidermatum; 96% in the data set with Pythium ultimum; 100% with Pythium irregulare; 99% with Phytophthora infestans [3]. Besides, the LogP in data set [2] was 3.51 [a].
As for `CC(C)CCCC(=O)Nc1cccc(CO/N=C(/c2ccccc2)c2noc(=O)n2C)n1` [Example 95], the Eff. % is recorded as 100% in the data set on Plasmopara viticola, 100% in the data set with Phytophthora infestans [3] and 70% in the data set on Pyricularia grisea. For the same compound, in data set [2], the LogP is 4.25 [a].
Consider `CCC(CC)C(=O)Nc1cccc(CO/N=C(/c2ccccc2)c2noc(=O)n2C)n1` [Example 124], for which the values for the Eff. % with Phytophthora infestans [3] and in the data set on Sphaerotheca fuliginea were 99% and 80%, respectively. Also, the lipophilicity (LogP) in data set [2] was 3.71 [a].
As to `C=CCCCCC(=O)Nc1cccc(CO/N=C(/c2ccccc2)c2noc(=O)n2C)n1` [Example 167], the Eff. % in the data set on Plasmopara viticola came out at 86%; in the data set with Phytophthora infestans [3], 98%; in the data set with Pyricularia grisea, 96%. For the same compound, the LogP in data set [2] is 3.89 [a].
For `Cn1c(/C(=N\OCc2cccc(NC(=O)OCc3ccccc3)n2)c2ccccc2)noc1=O` [Example 168], the Eff. % is given as 92% in the data set with Phytophthora infestans [1]; 100% in the data set with Plasmopara viticola; 92% in the data set with Pythium aphanidermatum; 70% in the data set with Pythium ultimum; 100% in the data set with Pythium irregulare; 99% with Phytophthora infestans [3]. For the same compound, the log partition coefficient (LogP) in [2] was 3.99 [a].
As for `COc1ccccc1OCC(=O)Nc1nc(CO/N=C(/c2ccccc2)c2noc(=O)n2C)cs1` [Example 171], the Eff. % came to 100% in the data set with Phytophthora infestans [3], 82% in the data set with Uromyces appendiculatus and 80% in the data set with Pyricularia grisea. Besides, the LogP in data set [2] was 3.55 [a].
As to `COc1ccc(OC)c(CC(=O)Nc2cccc(CO/N=C(/c3ccccc3)c3noc(=O)n3C)n2)c1` [Example 190], the Eff. % with Phytophthora infestans [3] was 100%; in the data set with Sphaerotheca fuliginea, 98%; in the data set on Uromyces appendiculatus, 83%; in data set [4] it was 100%; in the data set on Puccinia recondita, 94%. For the same compound, the LogP in data set [2] is 3.6 [a].
The chromatographic logP is a lipophilicity value derived from retention on a column. As to `CCN(CC)c1cccc(CO/N=C(/c2ccccc2)c2noc(=O)n2C)n1` [Example 197, 3-[(Z)-({[6-(diethylamino)pyridin-2-yl]methoxy}imino)(phenyl)methyl]-4-methyl-1,2,4-oxadiazol-5(4H)-one], the Eff. % with Phytophthora infestans [3] amounted to 100%; in the data set on Sphaerotheca fuliginea, 80%; in the data set on Uromyces appendiculatus, 89%; in [4], 96%; in the data set with Puccinia recondita, 94%. Moreover, in data set [5], the chromatographic logP amounted to 2.63.
As for `CCOCC(C)OC(=O)Nc1cccc(CO/N=C(/c2ccccc2)c2noc(=O)n2C)n1` (stereo not drawn) [Example 199], the Eff. % came to 97% in the data set on Phytophthora infestans [1]; 100% with Plasmopara viticola; 99% in the data set on Pythium aphanidermatum; 96% in the data set on Pythium ultimum; 100% with Pythium irregulare. For the same compound, the lipophilicity (LogP) in [2] is 3.53 [a].
Turning to `CCCCCC(=O)Nc1cccc(CO/N=C(/c2cccc(OC)c2)c2noc(=O)n2C)n1` [Example 211], the Eff. % worked out at 91% with Phytophthora infestans [3], 84% with Botrytis cinerea, 72% with Sphaerotheca fuliginea and 71% with Puccinia recondita. For the same compound, the LogP in data set [2] is 3.92 [a].
With `C#CCC(C)OC(=O)Nc1cccc(CO/N=C(/c2ccccc2)c2noc(=O)n2C)n1` (stereo not drawn) [Example 226], the Eff. % in the data set on Phytophthora infestans [1] is recorded as 92%; with Plasmopara viticola, 100%; with Pythium aphanidermatum, 99%; in the data set on Pythium ultimum, 93%; in the data set on Pythium irregulare, 90%; in the data set on Phytophthora infestans [3] it was 100%. Also, the LogP in [2] is 3.57 [a].
`Cn1c(/C(=N\OCc2cccc(NC(=O)C3OCCc4ccccc43)n2)c2ccccc2)noc1=O` (stereo not drawn) [Example 227]: the Eff. % stood at 100% in the data set on Phytophthora infestans [3] and 96% with Pyricularia grisea. The lipophilicity (LogP) in [2] is 4.1 [a].
Take `CCCOC(=O)Nc1nc(CON=C(c2ccccc2)c2noc(=O)n2C)cs1` [Example 265]: the Eff. % was 93% in the data set on Phytophthora infestans [3] and 70% in the data set on Pyricularia grisea. Further, in data set [2], the log partition coefficient (LogP) is 3.35 [a].
`Cn1c(/C(=N\OCc2cccc(NC(=O)OC(CCl)CCl)n2)c2ccccc2)noc1=O` [Example 306]: the Eff. % is listed as 100% in the data set on Phytophthora infestans [3] and 90% in the data set on Pyricularia grisea. The LogP in data set [2] was 3.83 [a].
On to `C#CCOC(=O)Nc1cccc(CO/N=C(/c2ccccc2)c2noc(=O)n2C)n1` [Example 342], for which the Eff. % in the data set with Phytophthora infestans [1] turned out to be 92%; in the data set on Plasmopara viticola it was 100%; with Pythium aphanidermatum it was 100%; in the data set on Pythium ultimum, 100%; in the data set on Pythium irregulare it was 100%; with Phytophthora infestans [3] it was 99%. Also, in data set [2], the log partition coefficient (LogP) is 3.13 [a].
